Eight molecules from ChEMBL document CHEMBL5465560, “Selectivity Literature for EUbOPEN Chemogenomic Library” (2024) can be followed below.

Assay [1] concerns the target P2Y purinoceptor 2 (Homo sapiens) (UniProt P41231). Put plainly: Selectivity interaction (Eurofins CEREP Diversity Profile (receptors and ion channels)) EUB0000279b P2RY2. The following applies: at 10 µM.
In assay [2] the target is T1, Phosphatidylinositol 4,5-bisphosphate 3-kinase catalytic subunit delta isoform (Homo sapiens) (UniProt O00329).
T1 sequence (whole entry): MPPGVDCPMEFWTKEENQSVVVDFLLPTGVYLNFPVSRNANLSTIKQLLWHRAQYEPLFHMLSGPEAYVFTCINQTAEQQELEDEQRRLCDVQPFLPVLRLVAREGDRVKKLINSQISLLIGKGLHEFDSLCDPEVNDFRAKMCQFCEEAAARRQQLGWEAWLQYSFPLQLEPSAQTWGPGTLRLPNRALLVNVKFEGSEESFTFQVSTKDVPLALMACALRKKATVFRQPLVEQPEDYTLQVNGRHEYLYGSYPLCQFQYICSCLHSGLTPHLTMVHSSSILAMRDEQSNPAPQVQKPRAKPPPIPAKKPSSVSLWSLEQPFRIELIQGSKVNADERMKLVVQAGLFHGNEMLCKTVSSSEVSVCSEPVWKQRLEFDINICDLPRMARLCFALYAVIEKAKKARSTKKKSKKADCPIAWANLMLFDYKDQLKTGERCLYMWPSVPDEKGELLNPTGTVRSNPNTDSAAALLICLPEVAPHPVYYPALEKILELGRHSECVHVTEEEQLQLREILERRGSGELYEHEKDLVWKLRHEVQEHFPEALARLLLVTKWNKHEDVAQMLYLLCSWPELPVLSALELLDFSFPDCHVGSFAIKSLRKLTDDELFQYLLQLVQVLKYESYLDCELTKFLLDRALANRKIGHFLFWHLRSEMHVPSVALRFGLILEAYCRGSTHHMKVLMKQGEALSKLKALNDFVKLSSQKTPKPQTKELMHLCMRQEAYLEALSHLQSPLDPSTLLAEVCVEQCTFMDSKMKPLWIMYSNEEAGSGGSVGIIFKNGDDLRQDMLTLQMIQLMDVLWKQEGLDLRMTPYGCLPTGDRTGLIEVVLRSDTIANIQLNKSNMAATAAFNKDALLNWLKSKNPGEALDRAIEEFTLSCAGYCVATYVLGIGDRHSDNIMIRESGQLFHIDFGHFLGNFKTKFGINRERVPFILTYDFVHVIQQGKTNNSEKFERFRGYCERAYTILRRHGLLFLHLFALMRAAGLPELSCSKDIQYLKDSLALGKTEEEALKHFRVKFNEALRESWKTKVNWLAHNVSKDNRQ
The assay can be described thus: Selectivity interaction (KinomeScan (DiscoverX)) EUB0000607a PIK3CD. The following applies: at 10 µM.

Assay [3] addresses Mitogen-activated protein kinase kinase kinase 1 (Homo sapiens, UniProt Q13233). The assay can be described thus: Selectivity interaction (ProQinase) EUB0000171b MAP3K1.
In assay [4] the target is Serine/threonine-protein kinase SBK1 (Homo sapiens) (UniProt Q52WX2). The assay can be described thus: Selectivity interaction (KinomeScan (DiscoverX)) EUB0000655a SBK1. Conditions: at 10 µM.
Assay [5] deals with T2, Dual specificity mitogen-activated protein kinase kinase 5 (Homo sapiens) (UniProt Q13163).
T2 sequence (whole entry): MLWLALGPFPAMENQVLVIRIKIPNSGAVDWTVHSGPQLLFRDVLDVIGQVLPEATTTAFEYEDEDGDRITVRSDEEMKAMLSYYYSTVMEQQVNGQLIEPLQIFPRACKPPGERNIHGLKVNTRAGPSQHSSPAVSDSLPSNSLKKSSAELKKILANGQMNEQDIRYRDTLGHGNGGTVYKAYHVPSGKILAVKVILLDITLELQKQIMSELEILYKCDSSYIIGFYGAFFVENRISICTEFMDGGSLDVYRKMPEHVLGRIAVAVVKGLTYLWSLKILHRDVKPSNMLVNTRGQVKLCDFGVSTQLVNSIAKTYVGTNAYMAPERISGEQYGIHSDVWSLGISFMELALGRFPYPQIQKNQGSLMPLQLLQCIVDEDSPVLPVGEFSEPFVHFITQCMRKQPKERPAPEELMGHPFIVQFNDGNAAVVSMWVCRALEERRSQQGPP
Put plainly: Selectivity interaction (KinomeScan (DiscoverX)) EUB0000618a MAP2K5. The following applies: at 10 µM.

Assay [6] has as its target Histone-lysine N-methyltransferase, H3 lysine-36 specific (Homo sapiens) (UniProt Q96L73). The assay can be described thus: Selectivity interaction (Methyltransferase screen (radiometric assays, panel of 8 PRMTs, 21 protein lysine methyltransferases, 3 DNA methyltransferases, and one RNA methyltransferase)) EUB0000272b NSD1. The following applies: at 1 µM.
For assay [7], the target named is T3, Interleukin-1 receptor-associated kinase 4 (Homo sapiens) (UniProt Q9NWZ3).
T3 sequence (whole entry): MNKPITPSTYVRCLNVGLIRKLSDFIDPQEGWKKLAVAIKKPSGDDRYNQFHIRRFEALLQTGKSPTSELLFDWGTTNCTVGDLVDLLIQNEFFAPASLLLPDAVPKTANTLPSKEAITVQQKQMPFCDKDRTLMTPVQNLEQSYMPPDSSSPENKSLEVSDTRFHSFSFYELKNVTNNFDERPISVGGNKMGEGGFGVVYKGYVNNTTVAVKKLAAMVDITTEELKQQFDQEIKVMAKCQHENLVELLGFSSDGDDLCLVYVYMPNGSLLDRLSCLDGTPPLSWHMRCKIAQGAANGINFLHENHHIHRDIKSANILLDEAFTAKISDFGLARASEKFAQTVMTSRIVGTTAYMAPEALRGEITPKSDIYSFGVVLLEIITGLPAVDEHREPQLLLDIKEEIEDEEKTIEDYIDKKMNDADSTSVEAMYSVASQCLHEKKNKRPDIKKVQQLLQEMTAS
Put plainly: Selectivity interaction (KinomeScan (DiscoverX)) EUB0001079a IRAK4. The following applies: at 1 µM.

Assay [8] addresses Tyrosine-protein kinase Yes (Homo sapiens) (UniProt P07947). The assay can be described thus: Selectivity interaction (KinomeScan (DiscoverX)) EUB0000229b YES1. Conditions: at 10 µM.

SMILES strings stand for the structures.

Mitogen-activated protein kinase kinase kinase 1, sequence (Q13233 whole entry): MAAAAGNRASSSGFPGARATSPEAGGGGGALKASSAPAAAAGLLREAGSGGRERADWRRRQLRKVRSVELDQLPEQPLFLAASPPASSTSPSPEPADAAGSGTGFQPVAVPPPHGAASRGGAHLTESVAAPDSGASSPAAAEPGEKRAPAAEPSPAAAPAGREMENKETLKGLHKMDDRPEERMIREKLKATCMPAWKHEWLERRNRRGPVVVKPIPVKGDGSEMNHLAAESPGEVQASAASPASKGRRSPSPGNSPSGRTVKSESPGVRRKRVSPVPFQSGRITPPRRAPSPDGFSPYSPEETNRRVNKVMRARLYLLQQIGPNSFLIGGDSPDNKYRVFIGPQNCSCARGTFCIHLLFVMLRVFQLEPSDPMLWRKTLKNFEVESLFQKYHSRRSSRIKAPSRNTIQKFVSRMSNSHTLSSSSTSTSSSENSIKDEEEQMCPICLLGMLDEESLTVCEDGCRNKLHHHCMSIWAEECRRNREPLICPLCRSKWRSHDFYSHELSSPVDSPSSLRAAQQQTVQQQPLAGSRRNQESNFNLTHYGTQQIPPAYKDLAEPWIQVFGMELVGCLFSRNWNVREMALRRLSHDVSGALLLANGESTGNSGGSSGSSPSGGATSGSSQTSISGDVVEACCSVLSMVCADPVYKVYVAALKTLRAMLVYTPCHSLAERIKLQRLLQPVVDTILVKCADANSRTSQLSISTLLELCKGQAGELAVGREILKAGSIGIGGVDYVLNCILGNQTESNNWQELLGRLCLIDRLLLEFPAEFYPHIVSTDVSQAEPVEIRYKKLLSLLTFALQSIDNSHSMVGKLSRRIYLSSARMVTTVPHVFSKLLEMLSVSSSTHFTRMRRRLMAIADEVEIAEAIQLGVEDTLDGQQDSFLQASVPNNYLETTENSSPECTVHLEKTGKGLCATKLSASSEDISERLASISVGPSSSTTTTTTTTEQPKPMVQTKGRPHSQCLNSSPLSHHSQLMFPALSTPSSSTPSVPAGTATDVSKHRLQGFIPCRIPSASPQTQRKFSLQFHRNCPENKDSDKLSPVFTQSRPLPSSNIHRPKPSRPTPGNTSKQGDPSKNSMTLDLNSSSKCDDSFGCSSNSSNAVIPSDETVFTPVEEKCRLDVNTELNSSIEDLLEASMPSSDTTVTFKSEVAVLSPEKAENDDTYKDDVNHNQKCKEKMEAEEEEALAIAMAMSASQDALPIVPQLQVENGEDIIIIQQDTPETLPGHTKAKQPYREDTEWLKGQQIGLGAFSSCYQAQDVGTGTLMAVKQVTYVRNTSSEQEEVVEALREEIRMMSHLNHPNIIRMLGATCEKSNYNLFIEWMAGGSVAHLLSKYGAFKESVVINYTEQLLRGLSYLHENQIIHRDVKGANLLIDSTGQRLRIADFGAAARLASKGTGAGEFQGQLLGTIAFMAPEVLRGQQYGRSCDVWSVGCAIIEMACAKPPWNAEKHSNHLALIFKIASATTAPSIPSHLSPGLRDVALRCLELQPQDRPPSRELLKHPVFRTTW
Tyrosine-protein kinase Yes (Homo sapiens), sequence (P07947 2-543 limits assumed): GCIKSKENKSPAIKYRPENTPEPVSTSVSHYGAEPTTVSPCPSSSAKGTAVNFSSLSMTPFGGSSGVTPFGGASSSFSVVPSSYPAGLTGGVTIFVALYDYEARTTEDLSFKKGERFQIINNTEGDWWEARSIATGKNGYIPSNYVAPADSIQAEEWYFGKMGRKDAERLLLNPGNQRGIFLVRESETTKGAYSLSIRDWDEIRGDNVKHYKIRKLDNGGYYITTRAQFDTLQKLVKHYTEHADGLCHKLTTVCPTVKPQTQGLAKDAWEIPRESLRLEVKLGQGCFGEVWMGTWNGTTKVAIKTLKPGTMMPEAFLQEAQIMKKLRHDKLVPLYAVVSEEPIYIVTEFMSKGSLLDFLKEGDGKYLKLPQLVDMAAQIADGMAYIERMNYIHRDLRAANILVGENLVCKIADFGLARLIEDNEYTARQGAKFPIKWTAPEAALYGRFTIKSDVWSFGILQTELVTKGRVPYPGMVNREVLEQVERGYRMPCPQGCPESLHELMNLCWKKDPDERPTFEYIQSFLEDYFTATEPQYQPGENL
Histone-lysine N-methyltransferase, H3 lysine-36 specific (Homo sapiens), sequence (Q96L73 whole entry): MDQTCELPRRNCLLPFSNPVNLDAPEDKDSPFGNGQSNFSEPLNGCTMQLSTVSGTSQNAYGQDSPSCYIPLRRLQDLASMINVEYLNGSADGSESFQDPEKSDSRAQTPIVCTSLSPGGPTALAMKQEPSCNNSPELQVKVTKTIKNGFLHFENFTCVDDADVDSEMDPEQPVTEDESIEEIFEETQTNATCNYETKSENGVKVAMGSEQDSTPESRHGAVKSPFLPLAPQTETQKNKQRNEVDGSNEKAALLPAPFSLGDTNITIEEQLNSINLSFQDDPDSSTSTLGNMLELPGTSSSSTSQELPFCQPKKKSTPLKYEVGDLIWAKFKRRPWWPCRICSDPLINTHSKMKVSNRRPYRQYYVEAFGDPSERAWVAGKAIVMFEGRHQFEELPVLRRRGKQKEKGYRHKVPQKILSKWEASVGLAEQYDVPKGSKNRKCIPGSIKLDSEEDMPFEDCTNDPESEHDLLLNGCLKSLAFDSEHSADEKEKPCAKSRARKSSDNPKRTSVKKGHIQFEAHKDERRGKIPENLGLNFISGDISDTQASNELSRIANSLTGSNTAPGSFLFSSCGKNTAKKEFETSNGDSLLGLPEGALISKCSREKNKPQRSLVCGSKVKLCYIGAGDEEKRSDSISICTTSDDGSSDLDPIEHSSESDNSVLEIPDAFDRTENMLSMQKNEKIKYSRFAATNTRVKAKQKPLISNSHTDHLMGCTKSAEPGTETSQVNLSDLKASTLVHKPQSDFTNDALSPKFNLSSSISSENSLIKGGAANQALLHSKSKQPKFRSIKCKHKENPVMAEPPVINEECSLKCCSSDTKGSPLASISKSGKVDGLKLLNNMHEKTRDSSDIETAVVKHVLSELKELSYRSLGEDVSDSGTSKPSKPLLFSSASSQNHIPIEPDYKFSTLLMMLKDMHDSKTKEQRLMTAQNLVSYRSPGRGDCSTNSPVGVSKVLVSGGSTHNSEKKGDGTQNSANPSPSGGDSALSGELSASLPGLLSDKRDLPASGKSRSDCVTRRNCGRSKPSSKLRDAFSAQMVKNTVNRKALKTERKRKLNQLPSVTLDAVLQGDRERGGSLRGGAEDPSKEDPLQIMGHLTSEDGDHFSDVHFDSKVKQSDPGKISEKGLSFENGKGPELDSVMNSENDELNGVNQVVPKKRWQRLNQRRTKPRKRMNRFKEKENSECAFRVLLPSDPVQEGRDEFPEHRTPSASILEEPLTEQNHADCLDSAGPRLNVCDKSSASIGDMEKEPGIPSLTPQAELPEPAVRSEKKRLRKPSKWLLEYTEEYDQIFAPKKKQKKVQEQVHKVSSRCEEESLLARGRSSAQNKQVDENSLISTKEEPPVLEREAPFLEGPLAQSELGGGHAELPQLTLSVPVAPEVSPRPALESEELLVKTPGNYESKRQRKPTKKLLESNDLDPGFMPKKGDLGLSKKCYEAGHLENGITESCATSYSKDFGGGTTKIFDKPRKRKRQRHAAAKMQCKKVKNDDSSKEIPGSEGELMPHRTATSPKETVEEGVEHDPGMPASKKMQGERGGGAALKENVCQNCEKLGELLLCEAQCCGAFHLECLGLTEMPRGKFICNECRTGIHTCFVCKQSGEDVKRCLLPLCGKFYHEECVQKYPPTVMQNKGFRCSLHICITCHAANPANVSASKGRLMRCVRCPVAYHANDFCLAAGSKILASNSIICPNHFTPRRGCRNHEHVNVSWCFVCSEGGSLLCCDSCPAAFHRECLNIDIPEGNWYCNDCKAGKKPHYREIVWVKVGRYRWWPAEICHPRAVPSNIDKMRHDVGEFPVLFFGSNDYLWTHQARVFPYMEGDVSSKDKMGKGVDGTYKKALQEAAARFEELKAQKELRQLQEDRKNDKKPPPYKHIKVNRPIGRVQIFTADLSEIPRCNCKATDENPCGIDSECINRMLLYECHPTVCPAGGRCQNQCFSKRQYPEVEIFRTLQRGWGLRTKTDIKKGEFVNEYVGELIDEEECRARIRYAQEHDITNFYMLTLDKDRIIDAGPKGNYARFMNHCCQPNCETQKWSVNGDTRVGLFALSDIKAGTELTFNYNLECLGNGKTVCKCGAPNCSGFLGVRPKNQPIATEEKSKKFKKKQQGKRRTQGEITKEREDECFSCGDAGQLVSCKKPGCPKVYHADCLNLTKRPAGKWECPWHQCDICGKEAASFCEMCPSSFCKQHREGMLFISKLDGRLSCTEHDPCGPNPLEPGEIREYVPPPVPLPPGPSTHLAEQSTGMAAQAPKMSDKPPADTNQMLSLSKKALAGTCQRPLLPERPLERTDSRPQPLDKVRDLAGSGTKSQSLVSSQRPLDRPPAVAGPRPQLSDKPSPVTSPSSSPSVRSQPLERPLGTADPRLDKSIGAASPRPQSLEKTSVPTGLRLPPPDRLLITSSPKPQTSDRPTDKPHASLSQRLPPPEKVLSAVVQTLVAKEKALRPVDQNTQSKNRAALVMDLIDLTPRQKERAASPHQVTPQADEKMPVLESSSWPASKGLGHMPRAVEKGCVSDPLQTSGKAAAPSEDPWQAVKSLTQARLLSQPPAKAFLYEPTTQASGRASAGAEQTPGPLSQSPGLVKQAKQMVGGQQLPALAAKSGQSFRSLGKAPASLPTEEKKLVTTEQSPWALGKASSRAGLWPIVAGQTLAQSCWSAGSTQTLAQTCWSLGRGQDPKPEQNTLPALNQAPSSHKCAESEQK
P2Y purinoceptor 2 (Homo sapiens), sequence (P41231 whole entry, canonical isoform): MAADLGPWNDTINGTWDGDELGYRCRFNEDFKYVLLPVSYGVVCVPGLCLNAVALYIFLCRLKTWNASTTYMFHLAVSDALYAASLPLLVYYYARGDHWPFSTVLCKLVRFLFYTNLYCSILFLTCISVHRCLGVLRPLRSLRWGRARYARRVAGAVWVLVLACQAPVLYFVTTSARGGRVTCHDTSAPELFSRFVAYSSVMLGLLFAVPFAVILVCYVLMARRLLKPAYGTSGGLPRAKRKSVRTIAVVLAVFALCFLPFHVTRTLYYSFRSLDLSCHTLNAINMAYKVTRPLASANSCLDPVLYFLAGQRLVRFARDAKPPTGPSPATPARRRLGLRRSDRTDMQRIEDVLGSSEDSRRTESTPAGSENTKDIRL

In assay [1], `CC(=O)c1cc(-c2ccccc2OCC2CC2)c2ncccn12` came in with a % of control of 84%.
The molecule `CNC(=O)Nc1ccc(-c2nc(N3CC4CCC(C3)O4)c3cnn(C4CCC5(CC4)OCCO5)c3n2)cc1` gave a % of control in assay [2] of 5.7%.
Turning to `C=CC(=O)Nc1cccc(C(=O)Nc2ccc(Nc3cc(-c4[nH]c(SC)nc4C)ccn3)cc2)c1`, the figures for the % of control in assay [3] (at 1 µM) and in assay [3] (at 5 µM) were 100% and 96%, respectively.
In turn, `CN(C)CCOc1ccc(-c2nc(-c3ccncc3)c(-c3ccc4c(c3)CC/C4=N\O)[nH]2)cc1` registered a % of control in assay [4] of 83%.
For the molecule `O[C@H]1CC[C@H](Nc2ncc3nc(Nc4c(F)cc(F)cc4F)n([C@H]4CCOC4)c3n2)CC1`, the % of control in assay [5] was 75%.
Consider `Cc1cc(C)cc([C@H]2c3cc(C)ccc3NC(=O)CN2C(=O)c2ccc(Br)s2)c1`, for which the % of activity in assay [6] worked out at 97.7%.
In turn, `Nc1cnc(N2CCc3cc(S(=O)(=O)Nc4c(F)cc(Cl)cc4F)cc(N4CCCC4=O)c32)nc1` [TP-020n] gave a % of control in assay [7] of 100%.
As to `COc1cc(N(C)c2ccnc3ccc(C(F)(F)F)cc23)cc(OC)c1OC`, the % binding in assay [8] stood at 83%.
